Reference: US20100160454A1, “ANTIMICROBIAL AGENTS, COMPOSITIONS AND PRODUCTS CONTAINING THE SAME, AND METHODS OF USING THE COMPOSITIONS AND PRODUCTS” (Eastman Chemical Company, priority 2008, published 2010)

Assays:
Assay in all cases: Microbiological challenge testing in BPW broth, graded subculture counts
Format in all cases: cell-based
[1] = test system: Escherichia coli ATCC 25922; conditions: E. Coli
Protocol: (§1) The microorganisms in the table below were used in challenge tests. They were either ATCC (American Type Culture Collection) or “wild type” as indicated. Wild type organisms were problematic organisms previously isolated from chemical products.
(§2) All of the microorganisms were grown in Tryptose Soy Broth (TSB), DIFCO™ available from Becton, Dickinson and Company, containing 1% dextrose. Candida albicans and Aspergillus niger, were incubated at 22° C.+/−2° C. for at least 96 hours. All bacteria were incubated at 35° C.+/−2° C. in a humidified incubator for at least 96 hours.
(§3) The following procedure was followed to determine the amount of each challenge material (inoculum broth) needed to produce a 10^8 CFU/mL challenge, which is equivalent to a final test-sample microbial concentration of 10^5 to 10^6 CFU/mL (CFU=colony forming units).
(§4) Using a sterile pipette, 1 mL of the growth from each TSB culture was transferred into tubes of 9 mL buffered water (pH 7.2 phosphate buffer) and mixed thoroughly. This was repeated to make serial 1:10 dilutions. Then, 0.1 mL of each sample and dilution was inoculated onto agar plates to produce the equivalent of a further 1:10 dilution. (C. albicans and A. niger were inoculated onto SABD and bacteria were inoculated onto Plate Count Agar (PCA), DIFCO™ available from Becton, Dickinson and Company.) (The normal volume plated for most samples was 0.1 mL. Some samples that could be very low in micro-organisms (high dilutions) were plated using 0.5 mL of inoculum, in order to produce reproducible counts.) The samples were distributed on the plates using the spread-plate technique. The spread-plate technique is carried out by spreading the sample over the entire plate surface using a sterile spreading rod while rotating the plate with a rotary auto-plater. After the inoculum was absorbed completely by the agar, each plate was inverted and incubated (fungi at 22° C.+/−2° C. and bacteria at 35° C.+/−2° C.).
(§5) After incubation for at least 48 hours, colonies that had developed on the agar plates were counted (CFU) and recorded with the corresponding dilution. If counting had to be delayed temporarily, plates were refrigerated, preferably no more than 24 hours, until they could be counted. The number of CFU/mL was determined by multiplying the plate count by the dilution factor of the plate counted.
(§6) Turbidity in Nepholemetric Turbidity Units (NTU) was measured for each serial dilution using the HF-Micro 100 Model Turbidimeter. For each microorganism, the plate counts were compared to the turbidity readings.
(§7) Control substrates (“broth alone”) were prepared for each microorganism separately in triplicate by adding 13.5 mL of Buffered Peptone Water broth (BPW) containing 1% dextrose to each 20-mL glass tube, then adding 1.5 mL challenge material to produce a final concentration at time zero of 10^5 to 10^6 CFU/mL and a total volume of 15 mL.
(§8) Test sample substrates were prepared containing each test material listed below at the concentrations shown for challenge testing with each microorganism separately. Sample substrates were prepared in triplicate, except the substrates containing butoxyethanol which were prepared in duplicate. Substrates were prepared by adding BPW containing 1% dextrose to each 20-mL glass tube, then adding the test material in the amount appropriate to achieve the desired weight/volume percent and to achieve a total volume of BPW plus dextrose plus test material of 13.5 mL. Then 1.5 mL challenge material was added to produce a final concentration at time zero of 10^5 to 10^6 CFU/mL and a total test sample substrate volume of 15 mL.

[2] = test system: Pseudomonas aeruginosa Wild type; conditions: P. aeruginosa
Protocol: as §1, §2, §3, §4, §5, §6, §7, §8

[3] = test system: Burkholderia cepacia Wild type; conditions: B. cepacia
Protocol: as §1, §2, §3, §4, §5, §6, §7, §8

[4] = test system: Streptococcus mutans ATCC 35668
Protocol: as §1, §2, §3, §4, §5, §6, §7, §8

Aeromonas sp. Wild type = test system: Aeromonas sp. Wild type
Protocol: as §1, §2, §3, §4, §5, §6, §7, §8

[5] = test system: Staphylococcus epidermidis ATCC 12228
Protocol: as §1, §2, §3, §4, §5, §6, §7, §8

[6] = test system: Staphylococcus aureus ATCC 25923; conditions: S. aureus
Protocol: as §1, §2, §3, §4, §5, §6, §7, §8

CCCCOCCO [EB, 2-butoxyethanol]
Grade ([1]; 2.5% (wt/vol), 3 day): 4 (1000 to 10,000 colonies countable (thus 10,000 CFU/mL to 100,000 CFU/mL)) | Grade ([1]; 2.5% (wt/vol), 14 day): 4 (1000 to 10,000 colonies countable (thus 10,000 CFU/mL to 100,000 CFU/mL)) | Grade ([1]; 2.5% (wt/vol), 30 day): 4 (1000 to 10,000 colonies countable (thus 10,000 CFU/mL to 100,000 CFU/mL)) | Grade ([1]; 5.0% (wt/vol), 3 day): 1 (0 to 51 colonies counted (thus 10 to 510 CFU/mL based on 0.1-mL sample)) | Grade ([1]; 5.0% (wt/vol), 14 day): 0 | Grade ([1]; 5.0% (wt/vol), 30 day): 0 | Grade ([2]; 2.5% (wt/vol), 3 day): 4 (1000 to 10,000 colonies countable (thus 10,000 CFU/mL to 100,000 CFU/mL)) | Grade ([2]; 2.5% (wt/vol), 13 day): 4 (1000 to 10,000 colonies countable (thus 10,000 CFU/mL to 100,000 CFU/mL)) | Grade ([2]; 2.5% (wt/vol), 30 day): 4 (1000 to 10,000 colonies countable (thus 10,000 CFU/mL to 100,000 CFU/mL)) | Grade ([2]; 5.0% (wt/vol), 3 day): 0 | Grade ([2]; 5.0% (wt/vol), 13 day): 0 | Grade ([2]; 5.0% (wt/vol), 30 day): 0 | Grade ([3]; 2.5% (wt/vol), 3 day): 4 (1000 to 10,000 colonies countable (thus 10,000 CFU/mL to 100,000 CFU/mL)) | Grade ([3]; 2.5% (wt/vol), 14 day): 4 (1000 to 10,000 colonies countable (thus 10,000 CFU/mL to 100,000 CFU/mL)) | Grade ([3]; 2.5% (wt/vol), 30 day): 4 (1000 to 10,000 colonies countable (thus 10,000 CFU/mL to 100,000 CFU/mL)) | Grade ([3]; 5.0% (wt/vol), 3 day): 0 | Grade ([3]; 5.0% (wt/vol), 14 day): 0 | Grade ([3]; 5.0% (wt/vol), 30 day): 0 | S. mutans growth grade, 3 day ([4]; 2.5% weight/volume): 4 (1000 to 10,000 colonies countable (thus 10,000 CFU/mL to 100,000 CFU/mL)) | S. mutans growth grade, 13 day ([4]; 2.5% weight/volume): 4 (1000 to 10,000 colonies countable (thus 10,000 CFU/mL to 100,000 CFU/mL)) | S. mutans growth grade, 30 day ([4]; 2.5% weight/volume): 4 (1000 to 10,000 colonies countable (thus 10,000 CFU/mL to 100,000 CFU/mL)) | S. mutans growth grade, 3 day ([4]; 5.0% weight/volume): 0 | S. mutans growth grade, 13 day ([4]; 5.0% weight/volume): 0 | S. mutans growth grade, 30 day ([4]; 5.0% weight/volume): 0 | Aeromonas sp growth grade, 3 day (Aeromonas sp. Wild type; 2.5% weight/volume): 4 (1000 to 10,000 colonies countable (thus 10,000 CFU/mL to 100,000 CFU/mL)) | Aeromonas sp growth grade, 14 day (Aeromonas sp. Wild type; 2.5% weight/volume): 4 (1000 to 10,000 colonies countable (thus 10,000 CFU/mL to 100,000 CFU/mL)) | Aeromonas sp growth grade, 30 day (Aeromonas sp. Wild type; 2.5% weight/volume): 4 (1000 to 10,000 colonies countable (thus 10,000 CFU/mL to 100,000 CFU/mL)) | Aeromonas sp growth grade, 3 day (Aeromonas sp. Wild type; 5.0% weight/volume): 1 (0 to 51 colonies counted (thus 10 to 510 CFU/mL based on 0.1-mL sample)) | Aeromonas sp growth grade, 14 day (Aeromonas sp. Wild type; 5.0% weight/volume): 0 | Aeromonas sp growth grade, 30 day (Aeromonas sp. Wild type; 5.0% weight/volume): 0 | S. epidermidis growth grade, 3 day ([5]; 2.5% weight/volume): 4 (1000 to 10,000 colonies countable (thus 10,000 CFU/mL to 100,000 CFU/mL)) | S. epidermidis growth grade, 13 day ([5]; 2.5% weight/volume): 4 (1000 to 10,000 colonies countable (thus 10,000 CFU/mL to 100,000 CFU/mL)) | S. epidermidis growth grade, 30 day ([5]; 2.5% weight/volume): 4 (1000 to 10,000 colonies countable (thus 10,000 CFU/mL to 100,000 CFU/mL)) | S. epidermidis growth grade, 3 day ([5]; 5.0% weight/volume): 0 | S. epidermidis growth grade, 13 day ([5]; 5.0% weight/volume): 0 | S. epidermidis growth grade, 30 day ([5]; 5.0% weight/volume): 0 | Grade ([6]; 2.5% (wt/vol), 3 day): 4 (1000 to 10,000 colonies countable (thus 10,000 CFU/mL to 100,000 CFU/mL)) | Grade ([6]; 2.5% (wt/vol), 14 day): 4 (1000 to 10,000 colonies countable (thus 10,000 CFU/mL to 100,000 CFU/mL)) | Grade ([6]; 2.5% (wt/vol), 30 day): 4 (1000 to 10,000 colonies countable (thus 10,000 CFU/mL to 100,000 CFU/mL)) | Grade ([6]; 5.0% (wt/vol), 3 day): 2 (52 to 100 colonies counted (thus 520 to 1000 CFU/mL)) | Grade ([6]; 5.0% (wt/vol), 14 day): 0 | Grade ([6]; 5.0% (wt/vol), 30 day): 0
